From patent EP2924040A1, “2-Amino-1-(o-tolyl)pyrrolo[3,2-b]quinoxaline-3-carboxamide derivates” (Universität Zürich, priority 2014, dated 2015)

What was measured:
EphB4 [1] = target: T1, EphB4 (Homo sapiens, UniProt P54760); assay: FRET based enzymatic assay (Z'-LYTE Kinase Assay Kit-Tyr 1 Peptide); type: biochemical; conditions: EphB4 25 ng/µL, ATP 125 µM, room temperature, 2 h
T1 sequence (P54760 16-987): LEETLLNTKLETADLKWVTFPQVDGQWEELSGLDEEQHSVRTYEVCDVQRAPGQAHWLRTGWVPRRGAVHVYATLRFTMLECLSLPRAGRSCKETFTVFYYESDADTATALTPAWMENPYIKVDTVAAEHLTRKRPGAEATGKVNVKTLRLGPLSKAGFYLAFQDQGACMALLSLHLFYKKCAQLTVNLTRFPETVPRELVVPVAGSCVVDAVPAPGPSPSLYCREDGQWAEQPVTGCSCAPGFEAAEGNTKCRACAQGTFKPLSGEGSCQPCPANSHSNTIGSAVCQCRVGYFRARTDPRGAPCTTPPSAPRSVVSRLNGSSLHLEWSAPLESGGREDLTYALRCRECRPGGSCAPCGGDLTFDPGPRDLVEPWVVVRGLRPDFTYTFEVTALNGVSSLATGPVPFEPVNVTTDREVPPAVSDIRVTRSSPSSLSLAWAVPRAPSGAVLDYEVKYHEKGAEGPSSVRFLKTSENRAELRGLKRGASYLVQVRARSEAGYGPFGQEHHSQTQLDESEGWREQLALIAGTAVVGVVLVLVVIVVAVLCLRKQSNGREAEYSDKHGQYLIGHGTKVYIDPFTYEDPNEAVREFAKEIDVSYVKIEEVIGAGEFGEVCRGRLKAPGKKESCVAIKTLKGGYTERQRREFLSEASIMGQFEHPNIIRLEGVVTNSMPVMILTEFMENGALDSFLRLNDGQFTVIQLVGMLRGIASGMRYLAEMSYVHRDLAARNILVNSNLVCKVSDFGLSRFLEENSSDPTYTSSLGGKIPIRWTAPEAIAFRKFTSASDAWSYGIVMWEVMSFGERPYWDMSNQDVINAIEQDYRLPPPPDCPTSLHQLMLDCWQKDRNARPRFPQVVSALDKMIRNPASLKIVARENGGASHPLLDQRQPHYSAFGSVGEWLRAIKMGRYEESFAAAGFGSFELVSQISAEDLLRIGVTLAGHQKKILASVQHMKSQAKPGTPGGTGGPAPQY
Protocol: Selected compounds were tested in the Z'-LYTE™ Kinase Assay Kit-Tyr 1 Peptide (Invitrogen, USA) in a Corning 384 well microtiter plate. Fluorescence progress curves were measured upon excitation at 400 nm and emission at 445 and 520 nm.

EphA3 = target: T2, EphA3 (Homo sapiens, UniProt P29320); assay: Differential Scanning Fluorimetry; type: binding; conditions: 2 µmol/L EphA3, test compound 20 µmol/L, pH 8.0; read-out: difference in the melting temperature Tm (Δ Tm)
T2 sequence (P29320 21-983): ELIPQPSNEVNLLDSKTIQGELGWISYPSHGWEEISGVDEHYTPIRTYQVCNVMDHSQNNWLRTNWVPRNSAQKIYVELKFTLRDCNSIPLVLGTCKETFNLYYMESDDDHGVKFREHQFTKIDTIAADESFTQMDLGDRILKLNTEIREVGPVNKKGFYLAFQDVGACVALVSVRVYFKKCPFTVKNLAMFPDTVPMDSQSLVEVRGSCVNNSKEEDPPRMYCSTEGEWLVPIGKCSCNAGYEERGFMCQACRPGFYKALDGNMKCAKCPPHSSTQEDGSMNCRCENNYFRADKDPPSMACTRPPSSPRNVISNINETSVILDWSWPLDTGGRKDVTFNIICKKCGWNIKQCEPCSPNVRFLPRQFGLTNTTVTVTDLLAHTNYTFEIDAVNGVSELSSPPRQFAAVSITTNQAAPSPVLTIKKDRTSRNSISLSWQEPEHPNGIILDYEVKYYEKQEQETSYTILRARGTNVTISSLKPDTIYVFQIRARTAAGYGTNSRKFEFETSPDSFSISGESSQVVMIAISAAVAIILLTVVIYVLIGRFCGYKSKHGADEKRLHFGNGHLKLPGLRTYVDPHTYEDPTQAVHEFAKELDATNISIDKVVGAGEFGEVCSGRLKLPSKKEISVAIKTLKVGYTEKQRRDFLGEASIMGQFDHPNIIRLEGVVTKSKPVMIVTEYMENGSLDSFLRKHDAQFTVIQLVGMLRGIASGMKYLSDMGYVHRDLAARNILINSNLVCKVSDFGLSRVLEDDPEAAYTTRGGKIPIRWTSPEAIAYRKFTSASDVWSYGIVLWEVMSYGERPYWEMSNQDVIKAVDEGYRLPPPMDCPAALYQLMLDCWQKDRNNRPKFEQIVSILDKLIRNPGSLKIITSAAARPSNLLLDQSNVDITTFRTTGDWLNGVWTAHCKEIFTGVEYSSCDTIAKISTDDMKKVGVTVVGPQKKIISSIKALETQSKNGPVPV
Protocol: To a 2 µmol/L solution of EphA3 in 10mM Tris HCl buffer (pH 8.0) containing 100mM NaCl, 5X SYPRO Orange fluorescent dye together with the test compounds prediluted in DMSO at a concentration of 20 µmol/L (1.4% final DMSO concentration). A final volume of 40 µL was added per well in a 96-well plate and incubated at room temperature for 1 h. The plates were centrifuged for 3 min at 450 rcf. The temperature gradient was performed in the range of 25 to 75 °C (50 acquisitions per degree at a ramp rate of […]) using a LightCycler 480 Real-Time PCR System. The detection of protein unfolding was performed with an excitation wavelength of 488 nm and an emission of 580 nm. All measurements were performed in triplicate. Compound 2 comprises a difference in the melting temperature Tm (corresponding to the temperature at which the concentrations of folded and unfolded protein are equal) with respect to EphA3 of 11.44 °C (Δ Tm), whereas prior art compounds 17 and 87 presented differences in the melting temperature Tm with respect to EphA3 of 1.6 and 0.7 °C, respectively.

EphB4 [2] = target: T1, EphB4; assay: Cellular phosphorylation assay (EphB4 autophosphorylation, sandwich ELISA); type: cell-based; set-up: stably transfected to overexpress full-length human EphB4; host or cells: mouse embryonic fibroblast cells; conditions: mouse embryonic fibroblast cells overexpressing full-length human EphB4; 90 min at 37 °C; stimulated with murine ephrinB2-Fc
Protocol: Mouse embryonic fibroblast cells, stably transfected to overexpress full-length human EphB4, were plated at 4×10^4 cells/well in DMEM supplemented with 10% FCS in 48-well culture dishes. Medium was replaced by DMEM without FCS before test compounds prediluted in 100% DMSO were added (final DMSO concentration of 1 %). […] Quantification of EphB4 phosphorylation was assessed in a 96-well plate via sandwich ELISA using a myc capture antibody and an antiphosphotyrosine detection antibody.

Cc1ccc(O)cc1-n1c(N)c(C(N)=O)c2nc3ccccc3nc21 [Compound 2, 2-Amino-1-(5-hydroxy-2-methylphenyl)-1H-pyrrolo[2,3-b]quinoxaline-3-carboxamide]
IC50 (EphB4 [1]): 11 nM
ΔTm at 20 µM (EphA3): 11.4 °C
IC50 (EphB4 [2]): < 6 nM
